Results as given in patent US5177069A, “Naphthysulfonylalkanoic acid compounds and pharmaceutical compositions thereof” (Kissei Pharmaceutical Co., Ltd., priority 1989, dated 1993).
pIC50: −log10 of the molar value.

Experiments:
CCK-receptor = target: T1, CCK-receptor (Rattus norvegicus, UniProt P30551); assay: CCK-receptor binding assay in pancreas (125I-CCK-8, pancreatic plasma membranes); design: species or system Male Wistar rats; conditions: 30 pM 125I-CCK-8, rat pancreatic plasma membranes, 37° C., 30 minutes; inhibition of specific binding
T1 construct: Pancreatic plasma membranes were prepared by the method of Chang et al; from tissue; host or cells: pancreas of male Wistar rats (pancreatic plasma membranes)
T1 sequence (P30551 1-444): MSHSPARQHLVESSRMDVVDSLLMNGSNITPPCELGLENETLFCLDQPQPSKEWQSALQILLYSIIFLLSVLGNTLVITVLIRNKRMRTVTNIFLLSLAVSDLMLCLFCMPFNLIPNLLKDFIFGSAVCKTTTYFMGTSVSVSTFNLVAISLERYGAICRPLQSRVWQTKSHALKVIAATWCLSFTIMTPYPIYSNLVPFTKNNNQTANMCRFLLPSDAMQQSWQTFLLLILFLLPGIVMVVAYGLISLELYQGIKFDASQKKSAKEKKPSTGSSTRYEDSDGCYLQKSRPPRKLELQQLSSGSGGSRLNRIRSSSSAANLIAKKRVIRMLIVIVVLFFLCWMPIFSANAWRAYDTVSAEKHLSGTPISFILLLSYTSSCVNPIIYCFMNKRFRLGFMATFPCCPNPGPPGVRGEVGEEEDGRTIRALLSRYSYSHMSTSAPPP
Method: CCK-receptor binding assay in pancreas
Pancreatic plasma membranes were prepared by the method of Chang et al. (Molecular Pharmacology, Vol. 30, p. 212-, 1986). Male Wistar rats were sacrificed by decapitation and the pancreas was removed. The pancreas was dissected free from adipose tissue and minced in 50 volumes ice-cold Tris-HCl buffer (50 mM, pH 7.4 at 37° C.). Homogenization was performed using ultra disperser and the homogenate was centrifuged at 50,000×g for 10 minutes. The pellet was washed by resuspension in the same volume of fresh Tris-HCl buffer and again centrifuged as above. The final pellet was suspended in assay buffer (50 mM Tris-HCl, 5 mM MgCl2, 5 mM dithiothreitol, 2 mg/ml of bovine serum albumin, and 0.14 mg/ml of bacitracin), and used as receptor sources for binding assay.
Thirty pM ^125 I-CCK-8 (final concentration), test drug or vehicle (for total binding) or 10^-6 M CCK-8 (for nonspecific binding) were added to the assay medium containing pancreatic plasma membranes (0.5 mg of original wet weight/ml). After incubation at 37° C. for 30 minutes, the assay medium was filtrated under reduced pressure through glass fiber filter and washed four times with 4 ml of ice-cold Tris-HCl buffer. The radioactivity trapped on the filter was counted by γ-counter (Packard 5650).
Specific binding was defined as the radioactivity bound after subtracting nonspecific binding determined in the presense of 10^-6 M unlabeled CCK-8. IC50 value was calculated from inhibition percentage of specific binding by each test drug.

isolated gallbladder = assay: CCK-antagonism in isolated gallbladder (contraction induced by CCK-8); type: cell-based, male Hartley guinea-pig; conditions: Cavia porcellus; guinea-pig gallbladder strips, Krebs solution 37° C.; contraction induced by 10^-8 M CCK-8
Method: CCK-antagonism in isolated gallbladder
Gallbladder strips isolated from male Hartley guinea-pig were prepared and suspended in Magnus bath filled with Krebs solution (1 g of initial tension). The solution kept at 37° C. was aerated with a mixture of 95% O2 and 5% CO2. The isometric contraction of strips was recorded through a force-displacement transducer. Antagonism by test drugs against gallbladder contraction induced by 10^-8 M CCK-8 was examined and IC50 value was calculated.

amylase secretion = assay: Effect on amylase secretion in rats (stimulated by CCK-8); type: in vivo, Male Wistar rats; conditions: Rattus norvegicus; intraduodenal, 30 minutes before subcutaneous CCK-8 (10 μg/kg); urethane-anesthetized rats
Method: Effect on amylase secretion in rats
Male Wistar rats were anesthetized with urethane (1.5 g/kg, S.C.), and tracheal cannula was inserted. Biliopancreatic juice was collected from the cannula which had been inserted into the common bile duct. Thirty minutes after intraduodenal administration of test drug, amylase secretion was stimulated by subcutaneous injection of CCK-8 (10 μg/kg). Amylase concentration in the sample collected every 30 minutes during experiment was assayed using Amylase B Test (Wako), and ED50 value was calculated.

| SMILES | pIC50 (CCK-receptor) | pIC50 (isolated gallbladder) | ED50 (amylase secretion) [mg/kg] |
| --- | --- | --- | --- |
| CCCCCN(CCCOC)C(=O)C(CCC(=O)OC)CS(=O)(=O)c1ccc2ccccc2c1 (racemic) [Compound No. 3, methyl 4-[N-(3-methoxypropyl)-N-pentylcarbamoyl]-5-(2-naphthylsulfonyl)pentanoate] | 5.62 | – | – |
| CCCCCN(CC(=O)OCC)C(=O)C(CCC(=O)OCc1ccccc1)CS(=O)(=O)c1ccc2ccccc2c1 (racemic) [compound 6, benzyl 4-(N-ethoxycarbonylmethyl-N-pentylcarbamoyl)-5-(2-naphthylsulfonyl)pentanoate] | 5.77 | – | – |
| CCCCCN(CC(=O)OCC)C(=O)C(CCC(=O)OC)CS(=O)(=O)c1ccc2ccccc2c1 (racemic) [compound 7, methyl 4-(N-ethoxycarbonylmethyl-N-pentylcarbamoyl)-5-(2-naphthylsulfonyl)pentanoate] | 5.77 | – | – |
| CCCCCN(CCCOC)C(=O)C(CCC(=O)O)CS(=O)(=O)c1ccc2ccccc2c1 (single isomer, unassigned) [compound 23] | 5.48 | – | – |
| CCCCCN(CC(=O)OC(C)(C)C)C(=O)C(CCC(=O)O)CS(=O)(=O)c1ccc2ccccc2c1 (single isomer, unassigned) [compound 26] | 7.60 | – | – |
| CCCCCN(CCCOC)C(=O)C(CCC(=O)O)CS(=O)(=O)c1ccc2ccccc2c1 (single isomer, unassigned; (-)) [compound 22, (-)-4-[N-(3-methoxypropyl)-N-pentylcarbamoyl]-5-(2-naphthylsulfonyl)pentanoic acid] | 6.92 | 5.55 | – |
| CCCCCN(CC(=O)O)C(=O)C(CCC(=O)OC)CS(=O)(=O)c1ccc2ccccc2c1 (stereo not shown) [Compound No. 15, N-[2-(2-Methoxycarbonylethyl)-3-(2-naphthylsulfonyl)propionyl]-N-pentylglycine] | 5.14 | – | – |
| CCCCCN(CCCOC)C(=O)C(CCC(=O)O)CS(=O)(=O)c1ccc2ccccc2c1 (stereo not shown) [Compound No. 18, 4-[N-(3-Methoxypropyl)-N-pentylcarbamoyl]-5-(2-naphthylsulfonyl)pentanoic acid] | 6.47 | 5.17 | 15.7 |
| CCCCCN(CC(=O)OCC)C(=O)C(CCC(=O)O)CS(=O)(=O)c1ccc2ccccc2c1 (stereo not shown) [Compound No. 19, 4-(N-Ethoxycarbonylmethyl-N-pentylcarbamoyl)-5-(2-naphthylsulfonyl)pentanoic acid] | 6.49 | 5.68 | 33.3 |
| COC(=O)CCC(CS(=O)(=O)c1ccc2ccccc2c1)C(=O)N(CCC1CCCCC1)CCC1CCCCC1 (stereo not shown) [Compound No. 34, Methyl 4-[N,N-bis(2-cyclohexylethyl)carbamoyl]-5-(2-naphthylsulfonyl)pentanoate] | 5.77 | – | – |
| O=C(O)CCC(CS(=O)(=O)c1ccc2ccccc2c1)C(=O)N(CCC1CCCCC1)CCC1CCCCC1 (stereo not shown) [Compound No. 39, 4-[N,N-Bis(2-cyclohexylethyl)carbamoyl]-5-(2-naphthylsulfonyl)pentanoic acid] | 5.74 | – | – |
| CCCCCN(CCOC(C)=O)C(=O)C(CCC(=O)O)CS(=O)(=O)c1ccc2ccccc2c1 (stereo not shown) [Compound No. 50, 4-[N-(2-Acetoxyethyl)-N-pentylcarbamoyl]-5-(2-naphtylsulfonyl)pentanoic acid] | 6.70 | – | – |
| CCCCCN(CC(=O)N1CCCCC1)C(=O)C(CCC(=O)O)CS(=O)(=O)c1ccc2ccccc2c1 (stereo not shown) [Compound No. 51, 5-(2-Naphthylsulfonyl)-4-(N-pentyl-N-piperidinocarbonylmethylcarbamoyl)pentanoic acid] | 6.40 | – | – |
| CCCCCN(CCCCC)C(=O)C(CCC(=O)O)CS(=O)(=O)c1ccc2ccccc2c1 (stereo not shown) [compound 20] | 7.54 | 5.59 | 9.6 |
| CCCCCN(CCC(=O)OCC)C(=O)C(CCC(=O)O)CS(=O)(=O)c1ccc2ccccc2c1 (stereo not shown) [compound 21] | 6.40 | 5.54 | – |
| CCCCCN(CC(=O)OC(C)C)C(=O)C(CCC(=O)O)CS(=O)(=O)c1ccc2ccccc2c1 (stereo not shown) [compound 24] | 7.36 | – | – |
| CCCCCN(CC(=O)OC(C)(C)C)C(=O)C(CCC(=O)O)CS(=O)(=O)c1ccc2ccccc2c1 (stereo not shown) [compound 25] | 7.31 | – | 8 |

| SMILES | pIC50 (CCK-receptor) | pIC50 (isolated gallbladder) | ED50 (amylase secretion) [mg/kg] |
| --- | --- | --- | --- |
| CCCCCN(CC(=O)N(C)C)C(=O)C(CCC(=O)O)CS(=O)(=O)c1ccc2ccccc2c1 (stereo not shown) [compound 27] | 5.66 | – | – |
| CCCCCN(CC(=O)N(CC)CC)C(=O)C(CCC(=O)O)CS(=O)(=O)c1ccc2ccccc2c1 (stereo not shown) [compound 28] | 6.68 | – | – |
| CCCCCN(CC(=O)N(C(C)C)C(C)C)C(=O)C(CCC(=O)O)CS(=O)(=O)c1ccc2ccccc2c1 (stereo not shown) [compound 29] | 5.64 | – | – |
| CCCCCN(CC(=O)NC(C)C)C(=O)C(CCC(=O)O)CS(=O)(=O)c1ccc2ccccc2c1 (stereo not shown) [compound 30] | 5.39 | – | – |
| CCCCCN(CC(=O)NC1CCCCC1)C(=O)C(CCC(=O)O)CS(=O)(=O)c1ccc2ccccc2c1 (stereo not shown) [compound 31] | 5.70 | – | – |
| CCCCCN(CCCCC)C(=O)C(CC(=O)O)CS(=O)(=O)c1ccc2ccccc2c1 (stereo not shown) [compound 32] | 6.54 | – | – |
| CCCCCN(CC(=O)O)C(=O)C(CCC(=O)O)CS(=O)(=O)c1ccc2ccccc2c1 (stereo not shown) [compound 33] | 5.47 | – | – |
| CC(=O)OCCN(CCOC(C)=O)C(=O)C(CCC(=O)OCc1ccccc1)CS(=O)(=O)c1ccc2ccccc2c1 (stereo not shown) [compound 35] | 5.40 | – | – |
| CCOC(=O)CN(CC(=O)OCC)C(=O)C(CCC(=O)OCc1ccccc1)CS(=O)(=O)c1ccc2ccccc2c1 (stereo not shown) [compound 36, benzyl 4-[N,N-bis(ethoxycarbonylmethyl)carbamoyl]-5-(2-naphthylsulfonyl)pentanoate] | 5.19 | – | – |
| C=CCOCCN(CCOCC=C)C(=O)C(CCC(=O)OC)CS(=O)(=O)c1ccc2ccccc2c1 (stereo not shown) [compound 37] | 5.51 | – | – |
| CCOC(=O)CN(CCCOC)C(=O)C(CCC(=O)OCc1ccccc1)CS(=O)(=O)c1ccc2ccccc2c1 (stereo not shown) [compound 38] | 6.96 | – | – |
| CCOC(=O)CN(CC(=O)OCC)C(=O)C(CCC(=O)O)CS(=O)(=O)c1ccc2ccccc2c1 (stereo not shown) [compound 40, 4-[N,N-Bis(ethoxycarbonylmethyl)carbamoyl]-5-(2-naphthylsulfonyl)pentanoic acid] | 5.68 | – | – |
| C=CCOCCN(CCOCC=C)C(=O)C(CCC(=O)O)CS(=O)(=O)c1ccc2ccccc2c1 (stereo not shown) [compound 41] | 5.85 | – | – |
| CCCCCN(CCOC(=O)C(C)(C)C)C(=O)C(CCC(=O)O)CS(=O)(=O)c1ccc2ccccc2c1 (stereo not shown) [compound 52] | 6.72 | – | – |
| CCCCCN(CCCN1CCCC1=O)C(=O)C(CCC(=O)O)CS(=O)(=O)c1ccc2ccccc2c1 (stereo not shown) [compound 53] | 6.66 | – | – |
| CCCCCN(CC(=O)N1CCOCC1)C(=O)C(CCC(=O)O)CS(=O)(=O)c1ccc2ccccc2c1 (stereo not shown) [compound 54] | 6.21 | – | – |
| CCCCCN(CC(=O)N1CCCC1)C(=O)C(CCC(=O)O)CS(=O)(=O)c1ccc2ccccc2c1 (stereo not shown) [compound 55] | 6.05 | – | – |
